Non-standard residues stand in square brackets, D forms with d. Residues, ends and D or L forms follow the SMILES beside them. *: point of attachment. X1 = C[C@H](CC(=O)N[C@@H](CCCCN)C(=O)O)OC(=O)C[C@H](C)NC(=O)C[C@@H](C)O*; β3hA = C[C@H](N)CC(=O)O
system: RMA-S; experiment: The compound was tested for binding affinity against murine RMA-S cells transfected with B*2705 by FMC analysis.; format: functional, Mus musculus

Compound | C50 [µM]
C[C@H](CC(=O)N[C@@H](C)CC(=O)N[C@@H](C)CC(=O)N[C@@H](CCCCN)C(=O)O)NC(=O)C[C@@H](C)NC(=O)[C@H](C)NC(=O)[C@H](CCCN=C(N)N)NC(=O)CN | 30
C[C@H](NC(=O)[C@H](CCCN=C(N)N)NC(=O)CN)C(=O)N[C@@H](C)CC(=O)N[C@@H](C)CC(=O)N[C@@H](C)CC(=O)N[C@@H](C)CC(=O)N[C@@H](CCCCN)C(=O)O | 6
C[C@H](CC(=O)N[C@@H](CCCCN)C(=O)O)NC(=O)C[C@H](C)NC(=O)C[C@@H](C)NC(=O)C[C@H](C)NC(=O)[C@H](C)NC(=O)[C@H](CCCN=C(N)N)NC(=O)CN.O=C(O)C(F)(F)F.O=C(O)C(F)(F)F.O=C(O)C(F)(F)F | 4.8
C[C@H](CC(=O)N[C@@H](C)CC(=O)N[C@@H](C)CC(=O)N[C@@H](CCCCN)C(=O)O)OC(=O)C[C@@H](C)OC(=O)[C@H](C)NC(=O)[C@H](CCCN=C(N)N)NC(=O)CN | 17
H-GRAFVTIGK-OH | 2.8
C[C@H](CC(=O)N[C@@H](CCCCN)C(=O)O)OC(=O)C[C@H](C)NC(=O)C[C@@H](C)OC(=O)C[C@H](C)NC(=O)[C@H](C)NC(=O)[C@H](CCCN=C(N)N)NC(=O)CN (H-GRA[β3hA]-X1) | 2.8
C[C@H](CC(=O)N[C@H](C)CC(=O)N[C@@H](CCCCN)C(=O)O)NC(=O)C[C@@H](C)NC(=O)C[C@@H](C)NC(=O)[C@H](C)NC(=O)[C@H](CCCN=C(N)N)NC(=O)CN.O=C(O)C(F)(F)F.O=C(O)C(F)(F)F.O=C(O)C(F)(F)F | 2.8

Reference: ChEMBL document CHEMBL1132252, “Nonapeptide analogues containing (R)-3-hydroxybutanoate and beta-homoalanine oligomers: synthesis and binding affinity to a class I major histocompatibility complex protein” (1999)
